Measured values from PubChem BioAssay (NCI).
Several values for one entry are separate records, joined by “and”; a condition that tells them apart may be missing. Equal entries are not always repeated.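 In this assay, cells in 96-well plates receive the compound at five concentrations for 48 hours. Endpoints are linearly interpolated between the surrounding concentrations. GI50 marks 50% less growth. At the TGI there is no net growth.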

Legend:
Test in all cases: inhibition of tumour cell growth, NCI panel, 48 h
UACC-257 melanoma = test system: UACC-257 melanoma
SF-539 CNS = test system: SF-539 CNS
OVCAR-4 ovarian = test system: OVCAR-4 ovarian
ACHN renal = test system: ACHN renal
K-562 leukemia = test system: K-562 leukemia
786-0 renal = test system: 786-0 renal
COLO 205 colon = test system: COLO 205 colon
HCC-2998 colon = test system: HCC-2998 colon
U251 CNS = test system: U251 CNS
SF-268 CNS = test system: SF-268 CNS
CCRF-CEM leukemia = test system: CCRF-CEM leukemia
MCF7 breast = test system: MCF7 breast
HCT-15 colon = test system: HCT-15 colon
NCI/ADR-RES ovarian = test system: NCI/ADR-RES ovarian
RPMI-8226 leukemia = test system: RPMI-8226 leukemia

Row | SMILES | TGI (UACC-257 melanoma) [µM] | TGI (SF-539 CNS) [µM] | TGI (OVCAR-4 ovarian) [µM] | TGI (ACHN renal) [µM] | TGI (K-562 leukemia) [µM] | TGI (786-0 renal) [µM] | TGI (COLO 205 colon) | TGI (HCC-2998 colon) [µM] | TGI (U251 CNS) [µM] | TGI (SF-268 CNS) [µM] | TGI (CCRF-CEM leukemia) [µM] | TGI (MCF7 breast) [µM] | TGI (HCT-15 colon) [µM] | TGI (NCI/ADR-RES ovarian) [µM] | TGI (RPMI-8226 leukemia) [µM] | GI50 (UACC-257 melanoma) [µM] | GI50 (SF-539 CNS) [µM] | GI50 (OVCAR-4 ovarian) [µM] | GI50 (HCC-2998 colon) [µM] | GI50 (MCF7 breast) [µM]
1 | CC1C2CC(C(S(=O)(=O)O)C2=O)C1(C)C (stereo unspecified) | > 100 | > 100 | > 100 | > 100 | > 100 | > 100 | > 100 µM | > 100 | > 100 | > 100 | > 100 | > 100 | – | – | – | – | – | – | – | –
2 | CNC1(c2cc3ccccc3s2)CCCCC1 | 35.1 | 46.3 | > 100 | > 100 | > 100 | 39.7 | 41.9 µM | 28.7 | 33.8 | 42.8 | – | 90.5 | > 100 | > 100 | – | – | – | – | – | –
3 | C=CCCON(C(=O)OC(C)(C)C)c1ccccc1 | > 100 | > 100 | – | > 100 | > 100 | > 100 | > 100 µM | – | > 100 | > 100 | > 100 | – | > 100 | > 100 | > 100 | – | – | – | – | –
4 | CCOC(=O)Nc1cc2c(c(N)n1)N=C(c1ccc(OC)cc1)CN2 | 36.5 | – | 49.4 | 35.7 | 1.32 | 1.9 | 0.196 µM and 0.146 µM | 0.178 | 2.47 | > 100 | – | > 100 | > 100 | – | – | 12.9 | < 0.0001 | 11.4 | 0.0185 | 0.0264
5 | COC(=O)[C@@H]1C=C[C@H](OC2OC(COC(C)=O)C(OC(C)=O)C(OC(C)=O)C2OC(C)=O)n2c(=O)n(-c3ccccc3)c(=O)n21 (stereo partly specified) | 5.07 | 8.21 | 3.22 | 3.17 | 4.02 | 2.83 | 3.38 µM | 21.9 | 8.33 | 8.17 | 4.42 | – | 3.85 | 31.4 | 6.05 | – | – | – | – | –
6 | N#C[S-].[La+3].c1cnc2c(c1)ccc1cccnc12.c1cnc2c(c1)ccc1cccnc12.c1cnc2c(c1)ccc1cccnc12 | 20.2 | 14.1 | 16.8 | 12.9 | > 100 | 11.7 | 16.1 µM | 18.8 | 11.9 | 18.9 | 2.58 | – | – | – | > 100 | – | – | – | – | –
7 | Cc1n(CC(C)C)c2c([n+]1C)C(=O)c1ccccc1C2=O | 0.156 | 0.532 | 1.02 | 3.53 | > 100 | 3.41 | 0.0575 µM | 1.53 | 0.499 | 0.155 | 27 | – | 4.39 | > 100 | 8.37 | – | – | – | – | –
8 | COc1ccc(CC2COc3cc(OC)cc(OC)c3C2=O)cc1 (stereo unspecified) | > 100 | 37.3 | 51.5 | > 100 | > 100 | 51.7 | 31.1 µM | – | > 100 | > 100 | – | > 100 | > 100 | 39.9 | 40.5 | – | – | – | – | –
9 | CC1(C)C2CCC1(C)C(N/C(Sc1ccccc1)=C(/C(Cl)=C(Cl)Cl)[N+](=O)[O-])C2 (stereo unspecified) | 27.4 | 26.2 | 29.8 | 26.3 | > 100 | 26.9 | – | 28.5 | 23.5 | 24.4 | – | 24 | 24.1 | 30.5 | – | – | – | – | – | –
10 | CCOC(=O)c1ccc(N=C/C=C(\Nc2ccc(C(=O)OCC)cc2)C23CC4CC(CC(C4)C2)C3)cc1 | > 100 | > 100 | > 100 | > 100 | > 100 | > 100 | > 100 µM | > 100 | > 100 | > 100 | – | > 100 | > 100 | > 100 | – | – | – | – | – | –
11 | O=C1COc2cc(NC(=S)Nc3ccccc3)ccc2N1 | > 100 | > 100 | > 100 | > 100 | > 100 | > 100 | > 100 µM | > 100 | > 100 | > 100 | > 100 | – | > 100 | – | > 100 | – | – | – | – | –
12 | COc1ccc(Cn2c(=O)c(OC)c(C)c3cc4ccccc4cc32)cc1 | 9.02 | > 100 | > 100 | > 100 | > 100 | > 100 | 40.2 µM | 63.5 | 80.6 | > 100 | > 100 | > 100 | > 100 | 87.9 | – | – | – | – | – | –
13 | O=C1/C(=C/C=C/c2ccccc2)CCC1CNc1ccccc1 (stereo unspecified) | > 100 | > 77.5 | > 100 | > 100 | > 35.6 | 41.2 | > 94.3 µM | > 100 | > 100 | > 100 | 27.5 | 32.7 | 50.1 | > 100 | – | – | – | – | – | –
14 | COc1ccc(Cn2c3c(cc(OC(C)=O)c2=O)Cc2ccccc2-3)cc1 | 9.87 | 28.4 | > 50 | 32 | 34 | 12.8 | > 50 µM | 9.96 | 26.3 | 33.8 | > 50 | > 50 | 39 | 8.53 | – | – | – | – | – | –
15 | CCC(CC)NC1=C(NC(C)=O)C(=O)c2ccccc2C1=O | > 50 | > 50 | > 50 | > 50 | > 50 | > 50 | > 50 µM | > 50 | > 50 | > 50 | > 50 | – | > 50 | – | – | – | – | – | – | –
16 | O=C1/C(=C\c2ccc([N+](=O)[O-])cc2)N(S(=O)(=O)c2ccccc2)c2ncccc21 | 42.8 | 55.5 | – | 31.4 | > 100 | 37.1 | 56.8 µM | – | 34.2 | 70.7 | > 100 | > 100 | 32.3 | 63.3 | 41 | – | – | – | – | –
